According to patent US12172975B2, “1H-indazole carboxamides as receptor-interacting protein kinase 1 inhibitors (RIPK1)” (BRISTOL-MYERS SQUIBB COMPANY, priority 2018, dated 2024):
Like-named read-outs stand apart in the source and are kept apart here.

Columns and labels:
[1] = test system: MLKL phosphorylation in HT29-L23 human colorectal adenocarcinoma cells; assay: MLKL Phosphorylation High-Content Assay; format: cell-based; details: necroptosis induced with TNFα, SMAC mimetic and Z-VAD, 6 h, read-out: pMLKL (IC50)
Summary of the method: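 Following fixation and staining for phospho-S358 MLKL with Hoechst nuclear counterstain, high-content imaging quantified phosphorylation in HT29-L23 cells challenged 6 h with TNFα 35 ng/mL, SMAC mimetic 700 nM and Z-VAD 140 nM. Nec-1s at 6.25 μM defined full inhibition; 4-parameter logistic fits yielded IC50 and Ymax.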

[2] = biological target: His-GST-TVMV-hRIPK1 (1-324) (Homo sapiens (Human), UniProt Q13546); assay: biochemical
His-GST-TVMV-hRIPK1 (1-324), sequence (Q13546 1-324): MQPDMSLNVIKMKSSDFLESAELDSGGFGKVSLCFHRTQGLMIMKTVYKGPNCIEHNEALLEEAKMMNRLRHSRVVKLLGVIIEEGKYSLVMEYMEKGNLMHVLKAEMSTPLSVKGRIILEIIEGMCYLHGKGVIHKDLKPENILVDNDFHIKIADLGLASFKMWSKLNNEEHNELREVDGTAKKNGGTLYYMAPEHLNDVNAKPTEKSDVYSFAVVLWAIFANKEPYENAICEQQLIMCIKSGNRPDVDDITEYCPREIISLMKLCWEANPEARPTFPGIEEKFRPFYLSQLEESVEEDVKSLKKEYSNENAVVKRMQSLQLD

| SMILES | IC50 [1] | IC50 [2] | IC50 ([1]; Homo sapiens) |
| --- | --- | --- | --- |
| [2H]C([2H])([2H])Oc1ncc(-c2ccc3c(C(=O)NC4CC4)n[nH]c3c2)cc1C(=O)N[C@@H](C)CC(=O)OC(C)(C)C [Example 195, tert-butyl (3S)-3-({5-[3-(cyclo-propylcarbamoyl)-1H-indazol-6-yl]-2-(deutero)methoxypyridin-3-yl}formamido)butanoate] | 39 nM | 36 nM |  |
| [2H]C([2H])([2H])Oc1ncc(-c2ccc3c(C(=O)NC4CC4)n[nH]c3c2)cc1C(=O)N[C@H](C)CC(=O)OC(C)(C)C [Example 196, tert-butyl (3R)-3-({5-[3-(cyclo-propylcarbamoyl)-1H-indazol-6-yl]-2-(deutero)methoxypyridin-3-yl}formamido)butanoate] | 19 nM | 84 nM |  |
| [2H]C([2H])([2H])Oc1ncc(-c2ccc3c(C(=O)NC4CC4)n[nH]c3c2)cc1C(=O)N[C@H](C)c1ccccc1C(F)(F)F [Example 209, N-cyclopropyl-6-[6-(deutero)-methoxy-5-{[(1R)-1-[2-(trifluoro-methyl)phenyl]ethyl]carbamoyl}-pyridin-3-yl]-1H-indazole-3-carboxamide] |  | 33 nM | 74 nM |
| [2H]C([2H])([2H])Oc1ncc(-c2ccc3c(C(=O)NC([2H])([2H])C([2H])([2H])[2H])n[nH]c3c2)cc1C(=O)N[C@@H](C)c1cc(OC(F)(F)F)ccc1F [Example 224, N-[(1,1,2,2,2-deutero)ethyl]-6-(5-{[(1S)-1-[2-fluoro-5-(trifluorometh-oxy)phenyl]ethyl]carbamoyl}-6-(deutero)methoxypyridin-3-yl)-1H-indazole-3-carboxamide] |  | 17 nM | 12 nM |
| [2H]C([2H])([2H])Oc1ncc(-c2ccc3c(C(=O)NC([2H])([2H])C([2H])([2H])[2H])n[nH]c3c2)cc1C(=O)N[C@@H](C)c1cc(C(F)(F)F)ccc1F [Example 226, N-[(1,1,2,2,2-deutero)ethyl]-6-(5-{[(1S)-1-[2-fluoro-5-(trifluoro-methyl)phenyl]ethyl]carbamoyl}-6-(deutero)methoxypyridin-3-yl)1H-indazole-3-carboxamide] |  | 57 nM | 41 nM |
| [2H]C([2H])([2H])Oc1ncc(-c2ccc3c(C(=O)NC([2H])([2H])C([2H])([2H])[2H])n[nH]c3c2)cc1C(=O)N[C@H](C)c1cccc(C(F)(F)F)c1 [Example 229, N-[(1,1,2,2,2-deutero)ethyl]-6-[6-(deutero)methoxy-5-{[(1R)-1-[3-(trifluoromethyl)phenyl]ethyl]car-bamoyl}pyridin-3-yl]-1H-indazole-3-carboxamide] |  | 210 nM | 82 nM |
| [2H]C([2H])([2H])Oc1ncc(-c2ccc3c(C(=O)NC([2H])([2H])C([2H])([2H])[2H])n[nH]c3c2)cc1C(=O)N[C@@H](C)c1cccc(C(F)(F)F)c1 [Example 230, N-[(1,1,2,2,2-deutero)ethyl]-6-[6-(deutero)methoxy-5-{[(1S)-1-[3-(trifluoromethyl)phenyl]ethyl]car-bamoyl}pyridin-3-yl]-1H-indazole-3-carboxamide] |  | 11 nM | 55 nM |
| [2H]C([2H])([2H])Oc1ncc(-c2ccc3c(C(=O)NC([2H])([2H])C([2H])([2H])[2H])n[nH]c3c2)cc1C(=O)N[C@H](C)c1cccc(OC(F)(F)F)c1 [Example 231, N-[(1,1,2,2,2-deutero)ethyl]-6-[6-(deutero)methoxy-5-{[(1R)-1-[3-(trifluoromethoxy)phenyl]ethyl]-carbamoyl}pyridin-3-yl]-1H-indazole-3-carboxamide] |  | 48 nM | 10 nM |
| [2H]C([2H])([2H])Oc1ncc(-c2ccc3c(C(=O)NC([2H])([2H])C([2H])([2H])[2H])n[nH]c3c2)cc1C(=O)N[C@H](C)c1ccccc1C(F)(F)F [Example 235, N-[(1,1,2,2,2-deutero)ethyl]-6-[6-(deutero)methoxy-5-{[(1R)-1-[2-(trifluoromethyl)phenyl]ethyl]car-bamoyl}pyridin-3-yl]-1H-indazole-3-carboxamide] |  | 34 nM | 48 nM |
| [2H]C([2H])([2H])Oc1ncc(-c2ccc3c(C(=O)NC([2H])([2H])C([2H])([2H])[2H])n[nH]c3c2)cc1C(=O)NCC[C@@H](O)c1ccc(Cl)cc1 [Example 237, 6-(5-{[(3R)-3-(4-chlorophenyl)-3-hydroxypropyl]carbamoyl}-6-(deutero)methoxypyridin-3-yl)-N-[(1,1,2,2,2-deutero)ethyl]-1H-indazole-3-carboxamide] |  | 6.3 nM | 14 nM |
| [2H]C([2H])([2H])Oc1ncc(-c2ccc3c(C(=O)NC([2H])([2H])C([2H])([2H])[2H])n[nH]c3c2)cc1C(=O)N[C@@H](C)CC(=O)OC(C)(C)C [Example 238, tert-butyl (3S)-3-{[5-(3-{[(1,1,2,2,2-deutero)ethyl]carbamoyl}-1H-indazol-6-yl)-2-(deutero)methoxy-pyridin-3-yl]formamido}butanoate] |  | 47 nM | 41 nM |
